Consider one compound from BindingDB's records for doi:10.1016/j.bmc.2019.05.001 (2019).

The nature of this experiment: Inhibition of mouse GAT2 expressed in HEK293 cells assessed as reduction in [3H]GABA uptake preincubated for 25 mins followed by [3H]GABA addition and measured after 10 mins by liquid scintillation counting method.

pIC50: −log10 of the molar value.

`O=C(O)C1CCN(CCON=Cc2ccccc2-c2ccc(Cl)cc2Cl)C1` (stereo unspecified): the pIC50 is 4.27.

One may read the pIC50 as the IC50 on a negative log10 scale, so that one unit is a factor of ten.
